The experiment addresses T1, Angiotensin-converting enzymes from porcine kidneys (EC 3.4.15.1) (Sus scrofa, UniProt F1RRW5).
T1 construct: gene ACE; native enzyme from porcine kidney (Sigma), lyophilized
T1 sequence (F1RRW5 34-1309): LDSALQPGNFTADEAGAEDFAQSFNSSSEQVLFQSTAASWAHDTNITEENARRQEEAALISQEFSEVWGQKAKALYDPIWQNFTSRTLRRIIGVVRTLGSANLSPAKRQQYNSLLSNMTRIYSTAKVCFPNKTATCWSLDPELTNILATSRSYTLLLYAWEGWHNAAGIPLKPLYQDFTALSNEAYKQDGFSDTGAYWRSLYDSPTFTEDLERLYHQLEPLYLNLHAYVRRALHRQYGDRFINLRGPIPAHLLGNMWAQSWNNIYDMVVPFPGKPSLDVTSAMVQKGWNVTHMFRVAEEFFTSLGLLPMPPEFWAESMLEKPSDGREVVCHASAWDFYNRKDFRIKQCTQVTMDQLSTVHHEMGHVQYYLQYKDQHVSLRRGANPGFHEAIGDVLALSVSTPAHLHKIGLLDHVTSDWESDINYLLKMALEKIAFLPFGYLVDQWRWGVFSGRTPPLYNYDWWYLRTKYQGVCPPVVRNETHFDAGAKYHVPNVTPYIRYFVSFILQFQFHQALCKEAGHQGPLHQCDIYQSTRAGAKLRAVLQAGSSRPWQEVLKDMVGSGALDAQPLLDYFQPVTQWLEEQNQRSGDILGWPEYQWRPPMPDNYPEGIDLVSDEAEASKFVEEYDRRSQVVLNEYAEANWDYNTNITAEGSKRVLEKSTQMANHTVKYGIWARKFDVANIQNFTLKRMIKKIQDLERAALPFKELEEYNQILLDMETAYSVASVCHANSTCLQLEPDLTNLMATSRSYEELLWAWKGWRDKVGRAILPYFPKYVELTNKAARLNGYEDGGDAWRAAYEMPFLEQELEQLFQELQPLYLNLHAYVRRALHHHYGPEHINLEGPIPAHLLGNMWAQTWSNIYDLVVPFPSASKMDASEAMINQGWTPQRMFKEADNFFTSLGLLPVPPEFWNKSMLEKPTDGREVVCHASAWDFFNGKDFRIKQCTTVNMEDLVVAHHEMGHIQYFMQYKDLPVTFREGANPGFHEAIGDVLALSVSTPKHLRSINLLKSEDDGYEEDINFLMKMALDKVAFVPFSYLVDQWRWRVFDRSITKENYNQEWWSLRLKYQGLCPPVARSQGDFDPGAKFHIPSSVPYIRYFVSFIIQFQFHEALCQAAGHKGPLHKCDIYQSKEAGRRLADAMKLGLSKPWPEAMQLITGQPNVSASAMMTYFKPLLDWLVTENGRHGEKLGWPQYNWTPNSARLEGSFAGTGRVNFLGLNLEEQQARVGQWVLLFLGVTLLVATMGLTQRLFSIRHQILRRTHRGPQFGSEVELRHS
In words: microplate fluorometric assay, OPA detection of His-Leu. The class given is biochemical. Conditions: read-out: IC50 (μg mL^-1) (converted).

This is an account of results in paper PMC3485629, “Bioactivity comparison of extracts from various parts of common and tartary buckwheats: evaluation of the antioxidant- and angiotensin-converting enzyme inhibitory activities” (Chemistry Central Journal, 2012).

As usually defined, the IC50 is the concentration at which inhibition is half-maximal.

SMILES strings stand for the structures.

As for `O=c1c(O)c(-c2ccc(O)c(O)c2)oc2cc(O)cc(O)c12` [quercetin], the IC50 was 129 µM.
